From patent US10508113B2, “Inhibitors of tyrosine kinase 2 mediated signaling” (AbbVie Inc., priority 2018, dated 2019) come the findings set out here.

This assay concerns the target T1, Tyk2/Jak2 (Homo sapiens, UniProt P29597).
T1 construct: Cell Type: Frozen primary phytohemagglutinin (PHA) T-Blasts; endogenous in cells; host or cells: primary PHA T-blasts
The assay can be described thus: Tyk2 (Tyk2/Jak2 PSTAT4 T-Blast) alpha screen assay: inhibition of IL-12 induced phosphorylation of STAT4 in T-blast cells. In kind it is cell-based. Conditions: IL-12 induced pSTAT4, T-blast cells. As to the method:
1. TYK2 (TYK2/JAK2 PSTAT4 T-BLAST) ALPHA SCREEN ASSAY
IL-12 is known to transduce its signal through IL-12 receptor via Jak2 and/or Tyk2. For that reason, the activity against Tyk2/Jak2 was measured by determining the inhibition of IL-12 induced phosphorylation of STAT4 in T-blast cells. […] See, e.g., Sohn et al., J. Immunology (2013) 2205-2216.
Cell Type: Frozen primary phytohemagglutinin (PHA) T-Blasts; Culture Medium: Roswell Park Memorial Institute (RPMI) 1640 Medium, 10% heat-inactivated fetal bovine serum (FBS), 1% penicillin/streptomycin (Pen-Strep), 10 mM hydroxyethyl piperazineethanesulfonic acid (HEPES), 10 ng/mL recombinant human interleukin-12 (rhIL-12); Assay Medium: Hank's Balanced Salt Solution (HBSS), no phenol red.
i. Automated 11-point 1:3 dilution curve: 2.5 mM top concentration dispensed in column 1 of a Corning 96-well polypropylene plate. Dimethyl sulfoxide (DMSO) was added to column 12 for high and low controls. Compounds were serially diluted 1:3 by adding 20 uL stock to 40 μL DMSO across the plate via Hamilton Microlab Star instrument.
ii. Media dilution of compounds: Serially diluted compounds were diluted 1:50 in assay medium by adding 4 μL compound to 196 μL assay medium in a Corning 96-well polypropylene plate (now 2% DMSO).
iii. […]
Primary T-Blasts from overnight culture were centrifuged, washed once in assay medium, and pelleted. T-Blasts were counted and resuspended at 12,500,000 cells/mL. […]
Phosphorylated Signal Transducer and Activator of Transcription 4 (pSTAT4) was quantified using the PerkinElmer SureFire Ultra pSTAT4 (Tyrosine 693) Assay. […]
Make master mix of Protein A donor beads using the following volumes per well: 5.88 μL Dilution Buffer and 0.12 μL […]. […] Read plate on Perkin Elmer Envision. […]
Certain compounds listed in Table C were tested for Tyk2 activity following the aforementioned Tyk2 (Tyk2/Jak2 PSTAT4 T-Blast) alpha screen assay and Jak2 (PTATS UT7) alpha screen assay. […] Selectivity for Tyk2 over Jak1, and Tyk2 over Jak2, are calculated from the tabulated activity data.

T1 sequence (P29597 whole entry, other chains not shown): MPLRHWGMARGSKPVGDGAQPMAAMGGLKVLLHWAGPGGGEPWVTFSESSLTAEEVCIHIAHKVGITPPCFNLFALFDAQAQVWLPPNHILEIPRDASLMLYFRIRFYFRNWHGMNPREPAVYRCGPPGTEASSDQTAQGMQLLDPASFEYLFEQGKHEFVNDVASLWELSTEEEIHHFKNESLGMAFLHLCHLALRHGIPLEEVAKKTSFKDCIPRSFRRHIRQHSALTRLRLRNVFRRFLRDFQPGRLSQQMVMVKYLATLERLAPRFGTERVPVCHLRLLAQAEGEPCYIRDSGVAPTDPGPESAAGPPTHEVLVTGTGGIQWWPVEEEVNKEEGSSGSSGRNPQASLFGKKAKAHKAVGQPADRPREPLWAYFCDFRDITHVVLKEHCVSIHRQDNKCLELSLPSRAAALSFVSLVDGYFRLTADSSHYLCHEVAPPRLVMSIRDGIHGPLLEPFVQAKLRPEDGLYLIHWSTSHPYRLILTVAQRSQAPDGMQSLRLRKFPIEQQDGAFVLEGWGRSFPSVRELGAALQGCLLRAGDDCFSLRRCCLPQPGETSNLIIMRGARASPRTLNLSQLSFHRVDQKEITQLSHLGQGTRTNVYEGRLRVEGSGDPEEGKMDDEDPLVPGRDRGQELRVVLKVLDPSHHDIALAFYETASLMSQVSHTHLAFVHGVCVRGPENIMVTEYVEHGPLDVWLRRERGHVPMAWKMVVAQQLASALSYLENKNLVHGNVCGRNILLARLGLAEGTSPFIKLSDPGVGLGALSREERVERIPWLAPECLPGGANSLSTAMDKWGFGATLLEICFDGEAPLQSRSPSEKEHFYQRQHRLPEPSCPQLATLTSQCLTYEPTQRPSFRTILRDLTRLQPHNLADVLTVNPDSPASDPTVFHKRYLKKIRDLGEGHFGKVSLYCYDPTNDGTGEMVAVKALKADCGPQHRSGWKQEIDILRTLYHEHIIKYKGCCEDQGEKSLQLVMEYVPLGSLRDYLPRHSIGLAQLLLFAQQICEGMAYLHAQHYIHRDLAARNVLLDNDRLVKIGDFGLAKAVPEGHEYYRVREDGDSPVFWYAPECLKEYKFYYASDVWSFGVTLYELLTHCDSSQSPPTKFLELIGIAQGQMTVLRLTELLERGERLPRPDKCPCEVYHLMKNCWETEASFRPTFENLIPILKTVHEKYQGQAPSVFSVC

Take `CC(=O)Nc1cc2c(-c3cccc([C@@]4(CO)CCOC4)n3)c[nH]c2cn1` [21-NH (R-isomer)]: a half-maximal response (EC50) required 540 nM.
